We go through one compound from patent US11364229B2, “Triple combination formulations for antiemetic therapy” (LEIUTIS PHARMACEUTICALS PVT, LTD, priority 2017, dated 2022).

The nature of the data set: Effect of Meglumine on solubility (stressed at 60° C. for 24 hours, filtered). The note with it: Arginine+Aspartic acid buffer system. Type of data set: physicochemical. How it is done: The samples were stressed at 60° C. for 24 hours and were analyzed after filtration.

Consider `CNC[C@H](O)[C@@H](O)[C@H](O)[C@H](O)CO` [meglumine], for which the “effect on solubility of Aprepitant in the buffer system” value is given as “improves the solubility of Aprepitant”.
